row,melting point [°C],SMILES
1,183,"O=C(Nc1ccc(-c2noc(C(F)(F)F)n2)cc1)C1CCC1 [Ex-2, N-[4-[5-(trifluoromethyl)-1,2,4-oxadiazol-3-yl]phenyl]cyclobutanecarboxamide]"
2,98,"CN(C(=O)C1CC1)c1ccc(-c2noc(C(F)(F)F)n2)cc1 [Ex-7, N-methyl-N-[4-[5-(trifluoromethyl)-1,2,4-oxadiazol-3-yl]phenyl]cyclopropanecarboxamide]"

# Source: US10687532B2, “Substituted oxadiazoles for combating phytopathogenic fungi” (BASF SE, priority 2015, dated 2020)
